The source made the active and inactive calls. The calls are words filed in the database; no cut-off is given here.
Experiments:
[1] = molecular target: NPC intracellular cholesterol transporter 1 (Homo sapiens, UniProt O15118, I1061T); assay: (§1) Chaperone activity at FLAG/GFP-tagged NPC1 I1061T mutant (unknown origin) expressed in HEK293 cells assessed as increase in localization of protein mutant in late endosomes after 24 hrs by Hoechst 33342 staining based fluorescence microscopic analysis; format: cell-based
[2] = test system: T1, NPC intracellular cholesterol transporter 1 (Homo sapiens), O15118 [I1061T]; assay: Chaperone activity at FLAG/GFP-tagged NPC1 I1061T mutant (unknown origin) expressed in HEK293 cells assessed as increase in localization of protein mutant in late endosomes at 30 uM after 24 hrs by Hoechst 33342 staining based fluorescence microscopic analysis; format: cell-based
T1 sequence (whole entry): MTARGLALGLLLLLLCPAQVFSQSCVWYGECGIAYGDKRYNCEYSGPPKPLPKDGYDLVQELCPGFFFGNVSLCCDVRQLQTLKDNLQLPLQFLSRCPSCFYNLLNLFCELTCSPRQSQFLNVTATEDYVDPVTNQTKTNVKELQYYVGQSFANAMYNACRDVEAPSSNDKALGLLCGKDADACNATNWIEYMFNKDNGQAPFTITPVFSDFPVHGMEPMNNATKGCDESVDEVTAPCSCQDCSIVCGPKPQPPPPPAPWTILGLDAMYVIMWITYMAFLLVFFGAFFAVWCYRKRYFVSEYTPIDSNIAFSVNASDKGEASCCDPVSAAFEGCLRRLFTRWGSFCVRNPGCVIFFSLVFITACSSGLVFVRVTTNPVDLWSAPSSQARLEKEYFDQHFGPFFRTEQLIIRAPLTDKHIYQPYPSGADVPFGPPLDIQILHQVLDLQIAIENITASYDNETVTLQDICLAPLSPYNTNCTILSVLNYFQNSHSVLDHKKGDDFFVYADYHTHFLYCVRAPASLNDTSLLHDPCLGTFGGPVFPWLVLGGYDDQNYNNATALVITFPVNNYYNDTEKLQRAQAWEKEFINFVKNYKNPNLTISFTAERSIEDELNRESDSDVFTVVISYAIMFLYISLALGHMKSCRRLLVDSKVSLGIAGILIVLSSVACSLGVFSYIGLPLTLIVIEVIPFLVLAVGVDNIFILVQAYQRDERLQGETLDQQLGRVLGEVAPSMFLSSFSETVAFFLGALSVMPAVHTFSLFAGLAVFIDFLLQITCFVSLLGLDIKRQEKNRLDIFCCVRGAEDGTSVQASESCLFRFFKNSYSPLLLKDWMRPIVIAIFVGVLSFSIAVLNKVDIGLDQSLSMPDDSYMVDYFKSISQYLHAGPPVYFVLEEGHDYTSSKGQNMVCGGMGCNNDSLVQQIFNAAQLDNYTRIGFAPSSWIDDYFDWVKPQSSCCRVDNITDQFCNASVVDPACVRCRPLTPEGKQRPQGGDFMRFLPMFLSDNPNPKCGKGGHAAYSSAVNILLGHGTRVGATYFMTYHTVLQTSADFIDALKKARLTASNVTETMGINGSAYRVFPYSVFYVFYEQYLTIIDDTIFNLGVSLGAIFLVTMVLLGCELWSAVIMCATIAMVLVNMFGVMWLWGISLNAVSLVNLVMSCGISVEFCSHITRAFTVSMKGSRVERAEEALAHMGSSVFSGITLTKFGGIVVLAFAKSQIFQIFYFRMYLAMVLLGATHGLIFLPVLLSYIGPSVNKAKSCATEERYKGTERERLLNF

[3] = Solubility of the compound in DMEM medium at 10 uM; format: physicochemical
[4] = test system: T1, NPC intracellular cholesterol transporter 1 (Homo sapiens), O15118 [I1061T]; assay: Chaperone activity at FLAG/GFP-tagged NPC1 I1061T mutant (unknown origin) expressed in HEK293 cells assessed as increase in localization of protein mutant in late endosomes at 1 uM after 24 hrs by Hoechst 33342 staining based fluorescence microscopic analysis; format: cell-based
[5] = Solubility of the compound in DMEM medium at 30 uM; format: physicochemical
[6] = test system: HEK293; assay: Stabilization of FLAG/GFP-tagged human NPC1L1 L1072T/I1168T double mutant expressed in HEK293 cells assessed as up regulation of NPC1L1 L1072T/I1168T double mutant expression at 3 to 30 uM after 24 hrs fluorescence microscopic analysis; format: cell-based
[7] = test system: HEK293; assay: Chaperone activity at FLAG/GFP-tagged human NPC1L1 L1072T/I1168T double mutant expressed in HEK293 cells assessed as localization of protein mutant in plasma membrane at 10 uM after 24 hrs fluorescence microscopic analysis; format: cell-based
[8] = test system: T1, NPC intracellular cholesterol transporter 1 (Homo sapiens), O15118 [I1061T]; assay: as §1; format: cell-based
[9] = test system: T1, NPC intracellular cholesterol transporter 1 (Homo sapiens), O15118 [I1061T]; assay: Stabilization of FLAG/GFP-tagged NPC1 I1061T mutant (unknown origin) expressed in HEK293 cells assessed as up regulation of NPC1 I1061T mutant expression after 24 hrs by Hoechst 33342 staining based fluorescence microscopic analysis; format: cell-based
[10] = test system: T1, NPC intracellular cholesterol transporter 1 (Homo sapiens), O15118 [I1061T]; assay: Chaperone activity at FLAG/GFP-tagged NPC1 I1061T mutant (unknown origin) expressed in HEK293 cells assessed as increase in localization of protein mutant in late endosomes at 10 uM after 24 hrs by Hoechst 33342 staining based fluorescence microscopic analysis; format: cell-based
[11] = test system: HEK293; assay: Chaperone activity at FLAG/GFP-tagged human NPC1L1 L1072T/I1168T double mutant expressed in HEK293 cells assessed as localization of protein mutant in plasma membrane at 3 uM after 24 hrs fluorescence microscopic analysis; format: cell-based

Row | Activity [2] | EC50 ([1]; read-out: EC50) [µM] | Compound | also measured
1 | – | > 3 | CCCCCCn1c(=O)c2ccccc2c2cc(C(N)=O)ccc21 | solubility [3]: Insoluble
2 | – | > 30 | CCCCn1c(=O)c2ccccc2c2cc(C(C)=O)ccc21 | –
3 | inactive | – | CCCCn1c(=O)c2ccccc2c2cc(NC(N)=O)ccc21 | –
4 | – | > 30 | CCn1c(=O)c2ccccc2c2cc(C(N)=O)ccc21 | –
5 | – | > 30 | CCCCn1c(=O)c2ccccc2c2cc(C(=O)N(C)C)ccc21 | –
6 | – | 19 | CCCn1c(=O)c2ccccc2c2cc(C(N)=O)ccc21 | –
7 | – | > 30 | CCCCn1c(=O)c2ccccc2c2cc(C(=O)NC)ccc21 | –
8 | – | 4.2 | CCCCCn1c(=O)c2ccccc2c2cc(C(N)=O)ccc21 | Activity [6]: inactive; Activity [7]: inactive; Activity [8]: Dose-dependent effect; Activity [9]: Dose-dependent effect
9 | inactive | – | CCCCn1c(=O)c2ccccc2c2cc(N)ccc21 | –
10 | inactive | – | CCCCn1c(=O)c2ccccc2c2ccccc21 | –
11 | – | 14 | CCCCn1c(=O)c2ccccc2c2cc(NC(C)=O)ccc21 | –
12 | inactive | – | CCCCn1c(=O)c2ccccc2c2cc(C)ccc21 | –
13 | – | > 3 | CCCCCCCn1c(=O)c2ccccc2c2cc(C(N)=O)ccc21 | solubility [3]: Insoluble
14 | inactive | – | CCCCn1c(=O)c2ccccc2c2cc(C(=O)NC3CC3)ccc21 | –
15 | inactive | – | CCCCn1c(=O)c2ccccc2c2cc(C(=O)O)ccc21 | –
16 | – | > 30 | CCCCn1c(=O)c2ccccc2c2cc(C(C)O)ccc21 (stereo not given) | –
17 | – | 11 | CCCCn1c(=O)c2ccccc2c2cc(C(N)=O)ccc21 | –
18 | – | > 30 | CCCCn1c(=O)c2ccccc2c2cc(O)ccc21 | –
19 | – | > 30 | CCCCn1c(=O)c2ccccc2c2cc(CO)ccc21 | –
20 | inactive | – | CCCCn1c(=O)c2ccccc2c2cc(F)ccc21 | –
21 | inactive | – | CCCCn1c(=O)c2ccccc2c2cc(N(C)C(C)=O)ccc21 | –

Further lines, the compound ahead of its results:

Row | Compound | Activity [2] | EC50 ([1]; read-out: EC50) [µM] | also measured
22 | COCCn1c(=O)c2ccccc2c2cc(C(N)=O)ccc21 | – | – | EC50 [1]: Not Active
23 | O=C(O)Cc1cccc(OCCCN(Cc2cccc(C(F)(F)F)c2Cl)CC(c2ccccc2)c2ccccc2)c1 | inactive | – | –
24 | CCCCN1C(=O)c2ccccc2Oc2cc(C(N)=O)ccc21 | inactive | – | –
25 | CCCCNC(=O)c1ccccc1-c1cccc(C(N)=O)c1 | inactive | – | –
26 | CCCCn1c(=O)c2ccccc2c2cc(C(=O)NC(C)C)ccc21 | inactive | – | –
27 | CCCCn1c(=O)c2ccccc2c2cc(C(=O)N(CCO)CCO)ccc21 | – | > 30 | –
28 | CCCCn1c(=O)c2ccccc2c2cc(NS(C)(=O)=O)ccc21 | – | 14 | –
29 | C[Si](C)(C)CCOCn1c(=O)c2ccccc2c2cc(C(N)=O)ccc21 | – | 16 | –
30 | CCCCn1c(=O)c2ccccc2c2cc(C(=O)NC3CCCC3)ccc21 | inactive | – | –
31 | CC(C)CCC[C@@H](C)[C@H]1CC[C@H]2[C@@H]3C[C@@H](O)[C@@]4(O)C[C@@H](OCC(=O)N5CCOCC5)CC[C@]4(C)[C@H]3CC[C@]12C | – | 0.15 | Activity [4]: Active
32 | NC(=O)c1ccc2c(c1)c1ccccc1c(=O)n2CC1CCCCC1 | – | 3.6 | solubility [5]: Insoluble
33 | CCCCN1C(=O)CCc2cc(C(N)=O)ccc21 | inactive | – | –
34 | CC(C)n1c(=O)c2ccccc2c2cc(C(N)=O)ccc21 | – | – | EC50 [1]: Not Active
35 | CCCCn1c(=O)c2ccccc2c2cc(C(=O)N3CCOCC3)ccc21 | inactive | – | –
36 | O=S(=O)(c1ccccc1)N(CC(F)(F)F)c1ccc(C(O)(C(F)(F)F)C(F)(F)F)cc1 | inactive | – | –
37 | CCCCn1c(=O)c2c(c3cc(C(N)=O)ccc31)CCCCCC2 | – | – | solubility [5]: Insoluble; Activity [10]: inactive
38 | CCCCn1c(=O)c2ccccc2c2cc(C(=O)N(CC)CC)ccc21 | inactive | – | –
39 | CCCCn1c(=O)c2ccccc2c2cc(C(O)(C(F)(F)F)C(F)(F)F)ccc21 | inactive | – | –
40 | Cn1c(=O)c2ccccc2c2cc(C(N)=O)ccc21 | – | > 30 | –

Row | Compound | Activity [2] | EC50 ([1]; read-out: EC50) [µM] | also measured
41 | CCCCCn1c(=O)c2ccccc2c2ccc(C(N)=O)cc21 | – | – | solubility [3]: Insoluble; EC50 [1]: Not Active
42 | CCCCn1c(=O)c2c(c3cc(C(N)=O)ccc31)CCC2 | inactive | – | –
43 | CCCCn1c(=O)c2ccccc2c2cc(C(=O)N3CCCCC3)ccc21 | inactive | – | –
44 | CCCCn1c(=O)c2ccccc2c2cc(C(=O)NCc3ccccc3)ccc21 | inactive | – | –
45 | NC(=O)c1ccc2c(c1)c1ccccc1c(=O)n2CCO | – | – | EC50 [1]: Not Active
46 | CCCCCn1c(=O)c2ccccc2c2c(C(N)=O)cccc21 | – | – | solubility [3]: Insoluble; EC50 [1]: Not Active
47 | CCCC(=O)N1CC2=C(CCCC2)c2cc(C(N)=O)ccc21 | inactive | – | –
48 | CCCCn1c(=O)c2ccccc2c2cc(C(F)(F)F)ccc21 | inactive | – | –
49 | CCCCn1c(=O)c2ccccc2c2cc(C(=O)NC(C)(C)C)ccc21 | inactive | – | –
50 | CCCCCn1c(=O)c2ccccc2c2cccc(C(N)=O)c21 | – | – | solubility [5]: Insoluble; EC50 [1]: Not Active
51 | CCCCn1c(=O)c2ccccc2c2cc(C(=O)NC3CCCCC3)ccc21 | inactive | – | –
52 | CCCCn1c(=O)c2ccccc2c2cc(OC(=O)N3CCOCC3)ccc21 | inactive | – | –
53 | CCCCn1c(=O)c2ccccc2c2cc(C(=O)N3CCCC3)ccc21 | inactive | – | –
54 | C=CCn1c(=O)c2ccccc2c2cc(C(N)=O)ccc21 | – | > 30 | –
55 | CCCCn1c(=O)c2ccccc2c2cc(NC(=O)C(F)(F)F)ccc21 | inactive | – | –
56 | C[C@H](CCC(=O)N(C)C)[C@H]1CC[C@H]2[C@@H]3CC=C4C[C@@H](OC(=O)N(CCO)CCO)CC[C@]4(C)[C@H]3CC[C@]12C | – | – | Activity [11]: Active
57 | CCCCn1c(=O)c2c(c3cc(C(N)=O)ccc31)CCCCC2 | – | 13 | –
58 | CCCCn1c(=O)c2c(c3cc(C(N)=O)ccc31)CCCC2 | – | 30 | –

— ChEMBL document CHEMBL4020749, “Phenanthridin-6-one derivatives as the first class of non-steroidal pharmacological chaperones for Niemann-Pick disease type C1 protein” (Bioorg Med Chem Lett, 2017)
